For four molecules, Kd results are on record in US9938261B2, “Heterocyclic compounds and methods of use thereof” (AMBIT BIOSCIENCES CORPORATION, priority 2011, dated 2018).

Holding throughout (conditions): competition binding
One experiment addresses T1, KIT (Homo sapiens, UniProt P10721).
T1 construct: made in house
As to the kind of experiment: Competition binding assay, KIT Kd. Put shortly:
(§1)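 Kd values came from eleven-point threefold dilutions of compound, measured by qPCR of kinase eluted from affinity-ligand beads after 1 h equilibrium binding at room temperature. Kinase was either T7-phage fused or HEK-293-expressed with a DNA tag.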

The next experiment has as its target CSF1R (Homo sapiens, UniProt P07333). As to the kind of experiment: Competition binding assay, CSF1R Kd. More on the design: made in house. Put shortly: as §1
A further experiment concerns the target T2, FLT3 (Homo sapiens, UniProt P36888).
T2 construct: made in house
T2 sequence (P36888 27-993): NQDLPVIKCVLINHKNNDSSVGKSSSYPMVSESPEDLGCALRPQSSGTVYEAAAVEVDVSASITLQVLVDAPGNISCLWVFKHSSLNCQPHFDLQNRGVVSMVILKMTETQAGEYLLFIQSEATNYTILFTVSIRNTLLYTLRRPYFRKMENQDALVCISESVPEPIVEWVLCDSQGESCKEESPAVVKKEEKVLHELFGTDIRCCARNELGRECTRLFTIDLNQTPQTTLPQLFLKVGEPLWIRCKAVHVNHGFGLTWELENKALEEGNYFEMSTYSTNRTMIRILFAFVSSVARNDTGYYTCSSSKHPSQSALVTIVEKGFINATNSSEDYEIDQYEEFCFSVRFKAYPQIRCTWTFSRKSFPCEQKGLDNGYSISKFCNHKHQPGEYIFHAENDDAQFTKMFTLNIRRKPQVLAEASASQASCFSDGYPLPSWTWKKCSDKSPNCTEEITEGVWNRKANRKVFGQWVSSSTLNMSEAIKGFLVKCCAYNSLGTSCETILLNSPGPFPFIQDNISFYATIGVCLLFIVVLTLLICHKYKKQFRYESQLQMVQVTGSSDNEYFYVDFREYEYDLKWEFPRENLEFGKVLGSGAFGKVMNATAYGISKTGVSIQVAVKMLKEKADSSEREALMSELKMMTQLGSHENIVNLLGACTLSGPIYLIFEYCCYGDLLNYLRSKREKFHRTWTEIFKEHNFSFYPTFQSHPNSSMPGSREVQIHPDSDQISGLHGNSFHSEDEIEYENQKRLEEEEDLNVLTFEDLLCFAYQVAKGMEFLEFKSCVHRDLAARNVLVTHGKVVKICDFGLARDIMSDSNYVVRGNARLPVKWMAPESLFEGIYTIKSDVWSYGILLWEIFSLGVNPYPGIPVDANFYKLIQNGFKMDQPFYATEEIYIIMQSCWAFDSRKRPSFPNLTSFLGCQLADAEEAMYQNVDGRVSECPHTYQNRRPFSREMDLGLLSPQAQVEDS
As to the kind of experiment: Competition binding assay, FLT3 Kd. Put shortly:
as §1

Chain of CSF1R (P07333 20-972): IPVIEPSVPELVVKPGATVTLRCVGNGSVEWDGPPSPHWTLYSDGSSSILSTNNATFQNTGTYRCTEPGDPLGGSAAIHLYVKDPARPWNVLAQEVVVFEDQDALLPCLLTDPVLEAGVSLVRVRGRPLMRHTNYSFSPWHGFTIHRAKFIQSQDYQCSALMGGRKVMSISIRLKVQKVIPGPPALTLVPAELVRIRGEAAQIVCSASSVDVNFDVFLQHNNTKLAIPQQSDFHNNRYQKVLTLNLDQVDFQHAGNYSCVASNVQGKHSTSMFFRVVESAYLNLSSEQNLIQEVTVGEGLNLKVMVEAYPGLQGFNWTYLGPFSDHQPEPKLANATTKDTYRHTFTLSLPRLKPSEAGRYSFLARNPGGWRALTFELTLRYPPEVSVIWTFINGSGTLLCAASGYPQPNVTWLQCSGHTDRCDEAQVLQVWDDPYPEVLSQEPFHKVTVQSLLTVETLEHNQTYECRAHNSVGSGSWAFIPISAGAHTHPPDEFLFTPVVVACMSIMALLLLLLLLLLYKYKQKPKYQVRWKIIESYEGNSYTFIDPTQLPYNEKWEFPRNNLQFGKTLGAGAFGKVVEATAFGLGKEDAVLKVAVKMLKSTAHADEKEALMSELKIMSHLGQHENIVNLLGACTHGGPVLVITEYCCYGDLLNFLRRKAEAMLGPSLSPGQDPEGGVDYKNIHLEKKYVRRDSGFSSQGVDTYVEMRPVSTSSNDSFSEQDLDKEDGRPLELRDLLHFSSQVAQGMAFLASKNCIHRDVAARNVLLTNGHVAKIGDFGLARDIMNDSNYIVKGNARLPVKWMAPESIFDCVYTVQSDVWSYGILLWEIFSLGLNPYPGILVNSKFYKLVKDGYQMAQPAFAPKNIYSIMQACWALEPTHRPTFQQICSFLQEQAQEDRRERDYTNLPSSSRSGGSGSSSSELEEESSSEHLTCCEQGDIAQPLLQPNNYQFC
T1 sequence (P10721 26-976): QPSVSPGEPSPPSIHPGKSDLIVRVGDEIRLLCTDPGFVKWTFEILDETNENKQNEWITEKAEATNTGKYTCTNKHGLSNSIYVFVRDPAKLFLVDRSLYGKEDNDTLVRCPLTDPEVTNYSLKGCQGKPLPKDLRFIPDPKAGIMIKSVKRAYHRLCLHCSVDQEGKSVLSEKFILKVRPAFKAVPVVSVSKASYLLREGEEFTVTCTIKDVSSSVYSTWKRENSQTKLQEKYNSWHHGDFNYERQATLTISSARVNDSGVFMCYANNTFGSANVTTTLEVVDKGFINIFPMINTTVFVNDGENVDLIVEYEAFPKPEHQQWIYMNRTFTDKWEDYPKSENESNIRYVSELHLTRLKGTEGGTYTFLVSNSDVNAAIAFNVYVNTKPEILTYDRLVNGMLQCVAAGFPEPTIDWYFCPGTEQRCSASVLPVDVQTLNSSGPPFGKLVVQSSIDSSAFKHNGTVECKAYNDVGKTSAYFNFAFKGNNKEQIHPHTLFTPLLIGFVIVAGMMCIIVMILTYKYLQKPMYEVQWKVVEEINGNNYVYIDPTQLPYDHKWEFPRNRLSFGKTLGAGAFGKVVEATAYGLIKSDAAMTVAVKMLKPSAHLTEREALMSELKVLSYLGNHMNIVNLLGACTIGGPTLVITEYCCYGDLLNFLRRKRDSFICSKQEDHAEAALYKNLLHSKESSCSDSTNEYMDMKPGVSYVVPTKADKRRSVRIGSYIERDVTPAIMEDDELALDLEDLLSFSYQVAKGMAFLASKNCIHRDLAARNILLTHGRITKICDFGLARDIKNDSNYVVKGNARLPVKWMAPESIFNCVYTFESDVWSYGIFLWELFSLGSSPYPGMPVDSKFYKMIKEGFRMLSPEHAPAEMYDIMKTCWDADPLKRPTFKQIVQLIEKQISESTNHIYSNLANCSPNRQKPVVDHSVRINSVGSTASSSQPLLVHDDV

`O[C@@H]1[C@H](O)CCC[C@H]1Nc1nc2ccc(Cn3cnc4cc(OC5COC5)ccc43)cc2s1` [Example 233, (1R,2S,3R)-3-((6-((5-(oxetan-3-yloxy)-1H-benzo[d]imidazol-1-yl)methyl)benzo[d]thiazol-2-yl)amino)cyclohexane-1,2-diol]: the Kd at KIT is not above 100 nM; on CSF1R, not above 5 nM; on FLT3, 200 to 1000 nM.
With `O[C@@H]1[C@H](O)CCC[C@H]1Nc1nc2ccc(Cn3cnc4cc(-n5cncn5)cnc43)cc2s1` [Example 234, (1R,2S,3R)-3-((6-((6-(1H-1,2,4-Triazol-1-yl)-3H-imidazo[4,5-b]pyridin-3-yl)methyl)benzo[d]thiazol-2-yl)amino)cyclohexane-1,2-diol], the Kd was not above 100 nM on KIT, 5 to 20 nM on CSF1R and 200 to 1000 nM at FLT3.
Regarding `O[C@@H]1[C@H](O)CCC[C@H]1Nc1nc2ccc(Cn3cnc4cc(N5CCOCC5)ccc43)cc2s1` [Example 235, (1R,2S,3R)-3-((6-((5-morpholino-1H-benzo[d]imidazol-1-yl)methyl)benzo[d]thiazol-2-yl)amino)cyclohexane-1,2-diol], the Kd on KIT is not above 100 nM; on CSF1R, 5 to 20 nM; at FLT3, 200 to 1000 nM.
Taken in the same sequence, the figures for `Cn1nnc(-c2ccc3c(c2)ncn3Cc2ccc3nc(N[C@@H]4CCC[C@@H](O)[C@H]4O)sc3c2)n1` [Example 236, (1R,2S,3R)-3-((6-((5-(2-methyl-2H-tetrazol-5-yl)-1H-benzo[d]imidazol-1-yl)methyl)benzo[d]thiazol-2-yl)amino)cyclohexane-1,2-diol] were 100 to 500 nM, 5 to 20 nM and 200 to 1000 nM.
